{"source": "paper PMC10064330", "about": "“Reversible Dual-Covalent Molecular Locking of the 14-3-3/ERRγ Protein–Protein Interaction as a Molecular Glue Drug Discovery Approach” (Journal of the American Chemical Society, 2023)", "key": {"14-3-3γ/PKR complex": {"molecular_target": "T1, 14-3-3γ/PKR complex (Homo sapiens, UniProt P61981)", "T1 construct": "made in house; host or cells: E. coli NiCo21 (DE3)", "T1 sequence (P61981 1-247)": "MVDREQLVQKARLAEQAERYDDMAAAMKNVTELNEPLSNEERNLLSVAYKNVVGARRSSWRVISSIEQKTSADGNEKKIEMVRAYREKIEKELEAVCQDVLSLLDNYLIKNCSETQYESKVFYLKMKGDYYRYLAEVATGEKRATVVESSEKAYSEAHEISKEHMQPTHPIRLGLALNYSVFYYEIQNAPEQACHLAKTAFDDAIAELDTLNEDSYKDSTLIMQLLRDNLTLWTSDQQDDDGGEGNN", "experiment": "FA / TD-FA selectivity screen, PKR client peptide", "assay_type": "binding", "details": "100 μM compound", "description": "(§1) Drugging the hub protein 14-3-3 raises the challenge of selectivity, given that 14-3-3 binds several hundred phosphoprotein partners (Figure 4a).[54] We hypothesized that the interplay of chemical reactivity, the topology, and functionality of the composite binding pocket shaped by 14-3-3 and the interaction partner drives selective stabilization of the 14-3-3/ERRγ complex.[53] To validate selectivity, molecular locks 5 and 10 were tested against a panel of nine 14-3-3 client peptides in an FA assay, and the SF100 was determined for each 14-3-3 PPI (Figure 4b and Figures S18–S20). This client panel contained a diverse representation of 14-3-3 binding proteins, differing for example in size and hydrophobicity of the +1 amino acid. Importantly, clients PKR and RND3, each containing a +1 Cys, were included in the panel.\n(§2) To further assess off-target reactivity to +1 Cys-containing peptides, fragment 1, locks 5 and 10 were also screened against PKR and RND3 in the TD-FA assay.\n(§3) Figure S20. KD and SF100 plot – selectivity screen. […]\n(§4) nine different client peptides in presence of DMSO (negative control) or 100 µM of compound 1, 5 or 10 (based on binding curves in Figure S19). Also a bar plot representation of stabilization factor (SF100) of compounds 1, 5 and 10 for each of these peptides (bottom plot).\n(§5) (1 picture or pasted object on this page, not shown here)\n(§6) Experimental Section Biophysical Assays\n(§7) 14-3-3γ protein expression (FA, TSA, MS assays)\nA pPROEX HTb expression vector encoding the human 14-3-3 protein gamma (14-3-3γ) with a N-terminal his6-tag was transformed by heat shock into NiCo21 (DE3) competent cells. Single colonies were cultured in 50 mL LB medium (100 µg/mL ampicillin). After overnight incubation at 37 °C, cultures were transferred to 2 L TB media (100 µg/mL ampicillin, 1 mM MgCl2) and incubated at 37 °C until an OD600 nm of 0.8 -1.2 was reached. […] Finally, the protein was concentrated to ∼60 mg/mL, analyzed Q-Tof LC/MS, and aliquots were flash-frozen for storage at −80 °C. […]"}, "14-3-3γ/RND3 complex": {"molecular_target": "T2, 14-3-3γ/RND3 complex (Homo sapiens, UniProt P61587+P61981)", "T2 construct": "RND3 pS240, PDB 8BFC; made in house; host or cells: E. coli NiCo21 (DE3)", "experiment": "FA / TD-FA selectivity screen, RND3 client peptide", "assay_type": "binding", "details": "100 μM compound; for effect on RND3 binding to 14-3-3γ over time / effect on 14-3-3γ/RND3 complex at short time lengths: TD-FA", "description": "as §1, §2, §3, §4, §5, §6, §7\nA pPROEX HTb expression vector encoding the human 14-3-3 protein gamma (14-3-3γ) with a N-terminal his6-tag was transformed by heat shock into NiCo21 (DE3) competent cells. Single colonies were cultured in 50 mL LB medium (100 µg/mL ampicillin). After overnight incubation at 37 °C, cultures were transferred to 2 L TB media (100 µg/mL ampicillin, 1 mM MgCl2) and incubated at 37 °C until an OD600 nm of 0.8 -1.2 was reached. Protein expression was then induced with 0.4 mM isopropyl-β-d-thiogalactoside (IPTG), and cultures were incubated overnight at 18 °C. Cells were harvested by centrifugation (8600 rpm, 20 minu tes, 4 °C) and resuspended in lysis buffer (50 mM Hepes, pH 8.0, 300 mM NaCl, 12.5 mM imidazole, 5 mM MgCl2, 2 mM βME) containing cOmplete™ EDTA-free Protease Inhibitor Cocktail tablets (1 tablet/100 ml lysate) and benzonase ( 5 µl/100 ml). After lysis using a C3 Emulsiflex-C3 homogenizer (Avestin), the cell lysate was cleared by centrifugation (20000 rpm, 30 minutes, 4 °C) and purified using Ni2+-affinity chromatography (Ni -NTA superflow cartridges, Qiagen). Typically two 5 mL columns (flow 5 mL/min) were use d for a 2 L culture in which the lysate was loaded on the column , washed with 10 CV wash buffer (50 mM Hepes, pH 8.0, 300 mM NaCl, 25 mM imidazole, 2 mM βME), and eluted in several fractions (2-4 CV) of elution buffer (50 mM Hepes, pH 8.0, 300 mM NaCl, 250 mM imidazole, 2 mM βME). Fractions containing the 14 -3-3 protein were combined and dialyzed into 25 mM HEPES pH 8.0, 100 mM NaCl, 10 mM MgCl2, 500 µM TCEP. Finally, the protein was concentrated to ∼60 mg/mL, analyzed Q-Tof LC/MS, and aliquots were flash-frozen for storage at −80 °C.\n14-3-3σΔc C38N protein expression (Crystallography)\nA pPROEX HTb expression vector encoding the human 14-3-3 protein sigma truncated after T231 (14-3-3σΔc), mutated C38N, and containing a N-terminal his6-tag was transformed by heat shock into NiCo21 (DE3) competent cells. Single colonies were cultured in 50 mL LB medium (100 µg/mL ampicillin). After overnight incubation at 37 °C, cultures were transferred to 2 L TB media (100 µg/mL ampicillin, 1 mM MgCl2) and incubated at 37 °C until an OD600 nm of 0.8-1.2 was reached. Protein expression was then induced with 0.4 mM isopropyl-β-d-thiogalactoside (IPTG), and cultures were incubated overnight at 18 °C. Cells were harvested by centrifugation (8600 rpm, 20 minutes, 4 °C) and resuspended in lysis buffer (50 mM Hepes, pH 8.0, 300 mM NaCl, 12.5 mM […]"}}, "data": [{"smiles": "CN(C)CCSSCCN(C)C(=O)c1cccc(F)c1", "note": "[compound 1, reference compound]", "values": [{"measurement": "stabilization of the PKR complex", "setting": "14-3-3γ/PKR complex", "result": "no stabilization"}, {"measurement": "effect on RND3 binding to 14-3-3γ over time", "setting": "14-3-3γ/RND3 complex", "result": "remains an inhibitor"}, {"measurement": "effect on 14-3-3γ/RND3 complex at short time lengths", "setting": "14-3-3γ/RND3 complex", "result": "immediate destabilization"}]}, {"smiles": "CN(C)CCSSCCN(C)C(=O)c1ccc(C=O)c(F)c1", "note": "[compound 5]", "values": [{"measurement": "stabilization of the PKR complex", "setting": "14-3-3γ/PKR complex", "result": "no stabilization"}, {"measurement": "effect on 14-3-3γ/RND3 complex at short time lengths", "setting": "14-3-3γ/RND3 complex", "result": "immediate destabilization"}]}, {"smiles": "CN(C)CCSSCCN(C)C(=O)c1cc(Br)cc(C=O)c1", "note": "[compound 10]", "values": [{"measurement": "stabilization of the PKR complex", "setting": "14-3-3γ/PKR complex", "result": "no stabilization"}, {"measurement": "SF100", "setting": "14-3-3γ/RND3 complex; RND3 peptide", "result": "~7.9"}, {"measurement": "effect on RND3 binding to 14-3-3γ over time", "setting": "14-3-3γ/RND3 complex", "result": "enhancement in RND3 binding"}, {"measurement": "effect on 14-3-3γ/RND3 complex at short time lengths", "setting": "14-3-3γ/RND3 complex", "result": "immediate destabilization"}]}]}
